The results in this text go back to ChEMBL document CHEMBL4814009, “A new anti-austerity agent, 4'-O-methylgrynullarin from Derris scandens induces PANC-1 human pancreatic cancer cell death under nutrition starvation via inhibition of Akt/mTOR pathway” (2021).

For experiment [1], the system named is MIA PaCa-2. Briefly: Anti-austerity activity against human MIA PaCa-2 cells assessed as cell killing in nutrient deprived medium. The class given is functional.
For experiment [2], the system named is PSN1. Briefly: Anti-austerity activity against human PSN1 cells assessed as cell killing in nutrient deprived medium. The class given is functional.
Experiment [3] in a line: Anti-austerity activity against human KLM-1 cells assessed as cell killing in nutrient deprived medium. The class given is functional.
In experiment [4] the test system is PANC-1. Briefly: Anti-austerity activity against human PANC-1 cells assessed as cell killing in nutrient deprived medium. The class given is functional.
In experiment [5] the test system is PANC-1. Briefly: Inhibition of colony formation in human PANC-1 cells in nutrient rich DMEM medium measured treated for 24 hrs followed by replaced with fresh medium measured after 10 days by crystal violet staining based assay. The experiment is classed as functional, cell-based. To be noted: dose 6.25-25 µM.
Experiment [6] addresses RAC-alpha serine/threonine-protein kinase (Homo sapiens) (UniProt P31749). Briefly: Inhibition of Akt in human PANC-1 cells assessed as reduction in phosphorylation at Ser473 incubated for 6 hrs by Western blot analysis. The experiment is classed as cell-based. To be noted: dose 1-10 µM. (In general: In western blotting, separated proteins are transferred to a membrane and probed.)

The target of experiment [7] is Serine/threonine-protein kinase mTOR (Homo sapiens) (UniProt P42345). Briefly: Inhibition of mTOR in human PANC-1 cells assessed as reduction in phosphorylation at S2448 incubated for 6 hrs by Western blot analysis. The experiment is classed as cell-based. To be noted: dose 1-10 µM.
Experiment [8] concerns PANC-1. Briefly: Antimigratory activity against human PANC1 cells assessed as wound area at 25 uM cultured in nutrient rich DMEM medium imaged every 10 mins for 24 hrs by quantitative real-time imaging based wound healing assay (reference value: 35%). The class given is functional.
Experiment [9] has as its system PANC-1. Briefly: Induction of apoptosis in human PANC-1 cells assessed as cell morphology by measuring red fluorescence incubated for 24 hrs in nutrient deprived medium by acridine orange and ethidium bromide dye based fluorescence microscopy analysis. The experiment is classed as functional. To be noted: dose 1-5 µM.

Structures are written as SMILES.

RAC-alpha serine/threonine-protein kinase (Homo sapiens), sequence (P31749 whole entry): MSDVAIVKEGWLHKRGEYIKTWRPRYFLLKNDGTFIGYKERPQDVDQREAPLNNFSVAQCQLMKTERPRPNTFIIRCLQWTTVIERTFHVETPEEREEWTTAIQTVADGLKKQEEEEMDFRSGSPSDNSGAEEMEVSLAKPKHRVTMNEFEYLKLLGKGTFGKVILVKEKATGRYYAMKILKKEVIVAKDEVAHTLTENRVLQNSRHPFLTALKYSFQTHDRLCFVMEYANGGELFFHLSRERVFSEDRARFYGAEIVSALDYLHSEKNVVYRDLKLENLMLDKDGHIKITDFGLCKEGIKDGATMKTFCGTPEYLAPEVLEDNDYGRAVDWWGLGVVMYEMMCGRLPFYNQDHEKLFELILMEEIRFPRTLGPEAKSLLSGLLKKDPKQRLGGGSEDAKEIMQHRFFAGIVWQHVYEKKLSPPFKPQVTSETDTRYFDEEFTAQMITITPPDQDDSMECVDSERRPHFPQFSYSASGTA

With `CC(C)=CCc1cc(-c2coc3cc(O)c(CC=C(C)C)c(O)c3c2=O)cc(O)c1O`, the PC50 came to 0.8 µM in experiment [1], 0.7 µM in experiment [2], 0.9 µM in experiment [3] and 0.7 µM in experiment [4].
In the case of `CC(C)=CCc1cc(-c2coc3c(CC=C(C)C)c(O)cc(O)c3c2=O)cc(O)c1O`, the PC50 in [1] was 10.9 µM; in experiment [2], 10.2 µM; in [3] it was 10.1 µM; in experiment [4], 10 µM.
Consider `COc1cc(C[C@H]2C(=O)OC[C@@H]2Cc2ccc(OC)c(OC)c2)ccc1O` [ARCTIGENIN], for which the PC50 is 1.9 µM in experiment [1], 0.7 µM in experiment [2], 0.8 µM in experiment [3] and 0.7 µM in [4].
As for `COc1c(O)cc(-c2coc3c(CC=C(C)C)c(O)cc(O)c3c2=O)cc1CC=C(C)C`, the PC50 in experiment [1] stood at 1.2 µM; in experiment [2] it was 1.8 µM; in [3] it was 1.6 µM; in experiment [4], 1 µM. Besides, the inhibition result in [5], in experiment [6] and in experiment [7] was “Dose-Dependent Effect” in each case. Moreover, the Activity was 74% in [8] and “Dose-Dependent Effect” in [9].
As for `CC(C)=CCc1cc(-c2coc3cc(O)c(CC=C(C)C)c(O)c3c2=O)ccc1O` [LUPALBIGENIN], the PC50 in experiment [1] is 1.3 µM; in experiment [2] it was 1.5 µM; in [3], 1 µM; in experiment [4] it was 1 µM.
